Assay [1] relates to NCI-H1417 cells. As to the kind of experiment: In vitro cell proliferation detection (CellTiter-Glo, 7 days). It counts as cell-based. The conditions noted are these: Homo sapiens. In general terms: In ATP-based viability assays light output follows the ATP content of the culture.
Assay [2] deals with LSD1 (Homo sapiens (Human), UniProt O60341). As to the kind of experiment: LSD1 enzyme activity detection (HTRF). It counts as biochemical. The conditions noted are these: read-out: Inhibition of enzymatic activity of LSD1 IC50.
[3] abbreviates: 168 h, NCI-H1417 cells, 7 days, CellTiter-Glo, read-out: NCI-H1417 proliferation inhibition IC50.

Where a name gives a salt, the structure may show the parent alone. Read-outs that look alike come from different tables or passages of the source. A value given as a limit tells only on which side of the number the result lay.

Take `COc1ccc(-c2cnc(N3CC4CCC3CC4N)c(C#N)c2-c2ccc(C#N)c(F)c2)cc1O` (stereo not drawn) [Example 76, 2-(5-amino-2-azabicyclo[2.2.2]octane-2-yl)-4-(4-cyano-3-fluorophenyl)-5-(3-hydroxy-4-methoxyphenyl) nicotinonitrile]: the IC50 in assay [1] (setting [3]) is 1.37 nM; in assay [2] (HTRF, H3K4me1 substrate), 4.9 ± 2.5 nM.

In the case of `COc1ccc(-c2cnc(N3CCC(N)C(F)C3)c(C#N)c2-c2ccc(C#N)c(F)c2)cc1O` (stereo not drawn) [Example 77, 2-(4-amino-3-fluoropiperidin-1-yl)-4-(4-cyano-3-fluorophenyl)-5-(3-hydroxy-4-methoxyphenyl) nicotinonitrile], the IC50 in assay [1] (setting [3]) came out at 2.19 nM; in assay [2] (HTRF, H3K4me1 substrate) it was 2.4 ± 0.9 nM.

`COc1ccc(-c2cnc(N3CCC[C@@H](N)C3)c(C#N)c2-c2ccc(C#N)c(F)c2)cc1O` [Example 78, (R)-2-(3-aminopiperidin-1-yl)-4-(4-cyano-3-f1uorophenyl)-5-(3-hydroxy-4-methoxyphenyl) nicotinonitrile]: the IC50 is 2.53 nM in assay [1] (setting [3]) and 1.6 ± 0.3 nM in assay [2] (HTRF, H3K4me1 substrate).

In the case of `COc1ccc(-c2cnc(N3CC(N)C3)c(C#N)c2-c2ccc(C#N)c(F)c2)cc1O` [Example 82, 2-(3-aminoazetidin-1-yl)-4-(4-cyano-3-fluorophenyl)-5-(3-hydroxy-4-methoxyphenyl) nicotinonitrile], the IC50 was determined as 72.4 nM in assay [1] (setting [3]) and 12.9 ± 0.2 nM in assay [2] (HTRF, H3K4me1 substrate).

Regarding `Cn1ccc(-c2cnc(N3CCC(N)CC3)c(C#N)c2-c2ccc(C#N)c(F)c2)cc1=O` [Example 83, 6-(4-aminopiperidin-1-yl)-4-(4-cyano-3-fluorophenyl)-1′-methyl-2′-oxo-1′,2′-dihydro-[3,4′-bipyridine]-5-carbonitrile hydrochloride], the IC50 was 630 nM in assay [1] (setting [3]) and 35.4 nM in assay [2] (HTRF, H3K4me1 substrate).

Consider `Cn1cc2cc(-c3cnc(N4CCC(N)CC4)c(C#N)c3-c3ccc(C#N)c(F)c3)ccc2n1` [Example 84, 2-(4-aminopiperidin-1-yl)-4-(4-cyano-3-fluorophenyl)-5-(2-methyl-2H-indazol-5-yl) nicotinonitrile hydrochloride], for which the IC50 in assay [1] (setting [3]) is 4.91 nM; in assay [2] (HTRF, H3K4me1 substrate), 2.18 nM.

For the molecule `N#Cc1ccc(-c2c(-c3ccc(N4CCOCC4)c(O)c3)cnc(N3CCC(N)CC3)c2C#N)cc1F` [Example 85, 2-(4-aminopiperidin-1-yl)-4-(4-cyano-3-fluorophenyl)-5-(3-hydroxy-4-morpholinophenyl) nicotinonitrile hydrochloride], the IC50 in assay [1] (setting [3]) is 0.76 nM; in assay [2] (HTRF, H3K4me1 substrate), 0.6 nM.

As for `CC(C)(O)COc1ccc(-c2cnc(N3CCC(N)CC3)c(C#N)c2-c2ccc(C#N)c(F)c2)cc1O` [Example 86, hydrochloride], the IC50 in assay [1] (setting [3]) came to 0.63 nM; in assay [2] (HTRF, H3K4me1 substrate) it was 0.147 nM.

With `COc1cc(N2CCC(N)CC2)nc(-c2ccc(C#N)c(F)c2)c1-c1ccc(F)c(O)c1` [Example 91, 4-(6-(4-aminopiperidin-1-yl)-3-(4-fluoro-3-hydroxyphenyl)-4-methoxypyridin-2-yl)-2-fluorobenzonitrile], the IC50 in assay [1] (setting [3]) worked out at 1.82 nM; in assay [2] (HTRF, H3K4me1 substrate), 1.1 ± 0.3 nM.

As to `COc1ccc(-c2c(OC)cc(N3CCC(N)CC3)nc2-c2ccc(C#N)c(F)c2)cc1C#N` [Example 93, 4-(6-(4-aminopiperidin-1-yl)-3-(3-cyano-4-methoxyphenyl)-4-methoxypyridin-2-yl)-2-fluorobenzonitrile], the IC50 in assay [1] (setting [3]) amounted to 30.7 nM; in assay [2] (HTRF, H3K4me1 substrate), 153 nM.

Regarding `COc1cc(N2CCC(N)CC2)nc(-c2ccc(C#N)c(F)c2)c1-c1ccc(C#N)c(F)c1` [Example 94, 4,4′-(6-(4-aminopiperidin-1-yl)-4-methoxypyridin-2,3-diyl)bis(2-fluorobenzonitrile)], the IC50 worked out at 104 nM in assay [1] (setting [3]) and 24.9 nM in assay [2] (HTRF, H3K4me1 substrate).

As for `COc1ccc(-c2c(OC)cc(N3CCNCC3)nc2-c2ccc(C#N)c(F)c2)cc1O` [Example 96, 2-fluoro-4-(3-(3-hydroxy-4-methoxyphenyl)-4-methoxy-6-(piperazinyl)pyridin-2-yl)benzonitrile hydrochloride], the IC50 in assay [1] (setting [3]) was determined as 11.8 nM; in assay [2] (HTRF, H3K4me1 substrate), 3 ± 0.6 nM.

Consider `COc1cc(-c2c(OC)cc(N3CCC(N)CC3)nc2-c2ccc(C#N)c(F)c2)ccc1O` [Example 97, 4-(6-(4-aminopiperidin-1-yl)-3-(4-hydroxy-4-methoxyphenyl)-4-methoxypyridin-2-yl)-2-fluorobenzonitrile], for which the IC50 in assay [1] (setting [3]) was 185 nM; in assay [2] (HTRF, H3K4me1 substrate), 88.5 nM.

For the molecule `COc1cc(N2CCC(N)CC2)nc(-c2ccc(C#N)c(F)c2)c1-c1ccc(C(F)(F)F)c(O)c1` [Example 99, 4-(6-(4-aminopiperidin-1-yl)-3-(3-hydroxy-4-(trifluoromethyl)phenyl)-4-methoxypyridin-2-yl)-2-fluorobenzonitrile hydrochloride], the IC50 in assay [1] (setting [3]) came out at 1.72 nM; in assay [2] (HTRF, H3K4me1 substrate), 4.9 ± 1.2 nM.

Take `COc1cc(N2CCN(C)CC2)nc(-c2ccc(C#N)c(F)c2)c1-c1ccc(C)c(O)c1` [Example 100, 2-fluoro-4-(3-(3-hydroxy-4-methylphenyl)-4-methoxy-6-(4-methylpiperazin-1-yl)pyridin-2-yl) benzonitrile]: the IC50 stood at 3.18 nM in assay [1] (setting [3]) and 8.9 ± 0.3 nM in assay [2] (HTRF, H3K4me1 substrate).

Regarding `COc1ccc(-c2c(-c3ccc(C#N)c(F)c3)nc(N3CCC(N)CC3)c(C)c2OC)cc1O` [Example 101, 4-(6-(4-aminopiperidin-1-yl)-3-(3-hydroxy-4-methoxyphenyl)-4-methoxy-5-methylpyridin-2-yl)-2-fluorobenzonitrile], the IC50 came out at 0.917 nM in assay [1] (setting [3]) and 1 ± 0.2 nM in assay [2] (HTRF, H3K4me1 substrate).

Turning to `CCOc1cc(N2CCC(N)CC2)nc(-c2ccc(C#N)c(F)c2)c1-c1ccc(OC)c(O)c1` [Example 103, 4-(6-(4-aminopiperidin-1-yl)-4-ethoxy-3-(3-hydroxy-4-methoxyphenyl)pyridin-2-yl)-2-fluorobe nzonitrile], the IC50 in assay [1] (NCI-H1417, 168 h, read-out: NCI-H1417 proliferation inhibition IC50(nM)) came out at 6.27 nM; in assay [2], 0.6 ± 0.2 nM.

`COc1ccc(-c2c(OC(F)F)cc(N3CCC(N)CC3)nc2-c2ccc(C#N)c(F)c2)cc1O` [Example 106, 4-(6-(4-aminopiperidin-1-yl)-4-(difluoromethoxy)-3-(3-hydroxy-4-methoxyphenyl)pyridin-2-yl)-2-fluorobenzonitrile]: the IC50 worked out at 0.594 nM in assay [1] (setting [3]) and 1.2 ± 0.7 nM in assay [2] (HTRF, H3K4me1 substrate).

As for `COc1ccc(-c2c(OCC3CCC3)cc(N3CCC(N)CC3)nc2-c2ccc(C#N)c(F)c2)cc1O` [Example 107, 4-(6-(4-aminopiperidin-1-yl)-4-(cyclobutylmethoxy)-3-(3-hydroxy-4-methoxyphenyl)pyridin-2-yl)-2-fluorobenzonitrile hydrochloride], the IC50 in assay [1] (setting [3]) stood at 8.35 nM; in assay [2] (HTRF, H3K4me1 substrate), 2.5 ± 1.7 nM.

`COc1ccc(-c2c(OCC3CC3)cc(N3CCC(N)CC3)nc2-c2ccc(C#N)c(F)c2)cc1O` [Example 108, 4-(6-(4-aminopiperidin-1-yl)-4-(cyclopropylmethoxy)-3-(3-hydroxy-4-methoxyphenyl)pyridin-2-yl)-2-fluorobenzonitrile hydrochloride]: the IC50 was 4.02 nM in assay [1] (setting [3]) and 1.5 ± 0.7 nM in assay [2] (HTRF, H3K4me1 substrate).

Regarding `COc1ccc(-c2c(OCC3COC3)cc(N3CCC(N)CC3)nc2-c2ccc(C#N)c(F)c2)cc1O` [Example 109, 4-(6-(4-aminopiperidin-1-yl)-3-(3-hydroxy-4-methoxyphenyl)-4-(oxetane-3-yl-methoxy)pyridin-2-yl)-2-fluorobenzonitrile hydrochloride], the IC50 in assay [1] (setting [3]) worked out at 16 nM; in assay [2] (HTRF, H3K4me1 substrate), 4 ± 1.7 nM.

For `COc1ccc(-c2c(C(N)=O)nc(N3CCC(N)CC3)nc2-c2ccc(C#N)c(F)c2)cc1F` [Example 110, 2-(4-aminopiperidin-1-yl)-6-(4-cyano-3-fluorophenyl)-5-(3-fluoro-4-methoxyphenyl)pyrimidine-4-carboxamide hydrochloride], the IC50 came out at 42.6 nM in assay [1] (setting [3]) and 3.2 ± 0.37 nM in assay [2] (HTRF, H3K4me1 substrate).

As to `CNC1CCCN(c2nc(OC)c(-c3ccc(OC)c(F)c3)c(-c3ccc(C#N)c(F)c3)n2)C1` (stereo not drawn) [Example 114, 2-fluoro-4-(5-(3-fluoro-4-methoxyphenyl)-6-methoxy-2-(3-(methylamino)piperidin-1-yl)pyrimidin-4-yl)benzonitrile hydrochloride], the figures for the IC50 in assay [1] (setting [3]) and in assay [2] were over 1000 nM and 67 nM, respectively.

Regarding `CNC1CCCN(c2nc(-c3ccc(C#N)c(F)c3)c(-c3ccc(OC)c(F)c3)c3nccn23)C1` (stereo not drawn) [Example 119, 2-fluoro-4-(8-(3-fluoro-4-methoxyphenyl)-5-(3-(methylamino)piperidin-1-yl)imidazolo[1,2-c]pyrimidin-7-yl) benzonitrile], the IC50 in assay [1] (setting [3]) is 39.1 nM; in assay [2] (HTRF, H3K4me1 substrate) it was 9.54 ± 1.2 nM.

With `COc1ccc(C#Cc2c(-c3ccc(C#N)c(F)c3)nc(N3CCC(N)CC3)n3ccnc23)cc1F` [Example 122, 4-(5-(4-aminopiperidin-1-yl)-8-(3-fluoro-4-methoxyphenyl)ethynyl)imidazolo [1,2-c]pyrimidin-7-yl)-2-fluorobenzonitrile hydrochloride], the IC50 in assay [1] (setting [3]) was 30.2 nM; in assay [2] (HTRF, H3K4me1 substrate), 8.68 ± 0.76 nM.

On to `N#Cc1ccc(-c2nc(N3CCC(N)CC3)n3ccnc3c2-c2ccc3[nH]nc(Cl)c3c2)cc1F` [Example 123, 4-(5-(4-aminopiperidin-1-yl)-8-(3-chloro-1H-indazolo-5-yl)imidazolo[1,2-c]pyrimidin-7-yl)-2-fluorobenzonitrile], for which the IC50 in assay [1] (setting [3]) turned out to be 47.6 nM; in assay [2] (HTRF, H3K4me1 substrate), 28.7 nM.

With `CC(C)(O)C#Cc1ccc(-c2c(-c3ccc(C#N)c(F)c3)nc(N3CCC(N)CC3)n3ccnc23)cc1F` [Example 126, 4-(5-(4-aminopiperidin-1-yl)-8-(3-fluoro-4-(3-hydroxy-3-methyl-1-alkynyl-1-yl)phenyl)imidazolo[1,2-c]pyrimidin-7-yl)-2-fluorobenzonitrile hydrochloride], the IC50 in assay [1] (setting [3]) was determined as 21.3 nM; in assay [2] (HTRF, H3K4me1 substrate), 15.9 nM.

Values taken from patent US20240216357A1 (SICHUAN HUIYU PHARMACEUTICAL CO., LTD., priority 2021, published 2024).
